Where two headings read alike, the source gives them in different places.

Common to all, as to format: cell-based, human
One data set has as its system MDA-MB-231 cells. The experiment in a line: MTS viability assay, MDA-MB-231 breast cancer cells. On the procedure:
FIG. 2A. Effects of compounds 1-11 on the viability of MDA-MB231 cells. MDA-MB-231 cells were cultured in DMEM medium supplemented with 10% FBS. Equal numbers were dispersed into 96-well plates. After 24 h, the cells were incubated with compounds 1-11 (0-30 μM) for 48 h. At the end of the incubation, MTS reagent (20% vol/vol) was added and the plates were incubated for 1-4 h. The OD490 was read with a plate reader. Wells with media but no cells were treated in similar fashion and the values utilized as blank. The results represent the mean±standard deviation of 6 independent determinations.
(§1) FIG. 2K. Effects of compounds 1, 69-72 on the viability of MDA-MB-231 cells. MDA-MB-231 cells were cultured in DMEM medium supplemented with 10% FBS. Equal numbers were dispersed into 96-well plates. After 24 h, the cells were incubated with compounds 1, 69-72 for 48 h. At the end of the incubation, MTS reagent (20% vol/vol) was added and the plates were incubated for 1-4 h. The OD490 was read with a plate reader. Wells with media but no cells were treated in similar fashion and the values utilized as blank. The results represent the mean±standard deviation of 6 independent determinations.
(§2) The cell lines were cultured from frozen stocks originally obtained from ATCC. MDA-MB-231, JIMT-1, DU145, U81, U251 cells were grown in DMEM medium. BT474, A2780s, A2780cp cells were grown in DMEM/F12 medium supplemented with 10% FBS. MiaPaCa2 was cultured in DMEM supplemented with 10% FBS and 2.5% horse serum. PC3 cells were cultured in F12K medium supplemented with 10% FBS. All the media were supplemented with penicillin/streptomycin.
(§3) The effects of the GAELs on the viability of the various epithelial cancer cell lines was determined as previously described. Briefly, equal numbers of the cells were dispersed into 96-well plates. After 24 h, the cells were incubated with the compounds (0-30 μM) for 48 h. At the end of the incubation, MTS reagent (20% vol/vol) was added and the plates were incubated for 1-4 h. The OD490 was read with a plate reader. Wells with media but no cells were treated in similar fashion and the values utilized as blank. The results represent the mean±standard deviation of 6 independent determinations.
Background: Formazan colour is commonly taken as a measure of viable cells.

The next data set concerns DU145 cells. Description: MTS viability assay, DU145 prostate cancer cells. As for the experimental part: (§4) FIG. 2D. Effects of compounds 1-11 on the viability of DU145 cells. DU145 cells were cultured in DMEM medium supplemented with 10% FBS. Equal numbers were dispersed into 96-well plates. After 24 h, the cells were incubated with compounds 1-11 (0-30 μM) for 48 h. At the end of the incubation, MTS reagent (20% vol/vol) was added and the plates were incubated for 1-4 h. The OD490 was read with a plate reader. Wells with media but no cells were treated in similar fashion and the values utilized as blank. The results represent the mean±standard deviation of 6 independent determinations.
FIG. 2H. Effect of compounds 1, 69-72 on the viability of DU145 cells. DU145 cells were cultured in DMEM medium supplemented with 10% FBS. Equal numbers were dispersed into 96-well plates. After 24 h, the cells were incubated with compounds 1, 69-72 for 48 h. At the end of the incubation, MTS reagent (20% vol/vol) was added and the plates were incubated for 1-4 h. The OD490 was read with a plate reader. Wells with media but no cells were treated in similar fashion and the values utilized as blank. The results represent the mean±standard deviation of 6 independent determinations.
as §2, §3

A further data set relates to JIMT-1 cells. Description: MTS viability assay, JIMT-1 breast cancer cells. On the procedure: FIG. 2B. Effects of compounds 1-11 on the viability of JIMT-1 cells. JIMT-1 cells were cultured in DMEM medium supplemented with 10% FBS. Equal numbers were dispersed into 96-well plates. After 24 h, the cells were incubated with compounds 1-11 (0-30 μM) for 48 h. At the end of the incubation, MTS reagent (20% vol/vol) was added and the plates were incubated for 1-4 h. The OD490 was read with a plate reader. Wells with media but no cells were treated in similar fashion and the values utilized as blank. The results represent the mean±standard deviation of 6 independent determinations.
FIG. 2J. Effects of compounds 1, 69-72 on the viability of JIMT-1 cells. JIMT-1 cells were cultured in DMEM medium supplemented with 10% FBS. Equal numbers were dispersed into 96-well plates. After 24 h, the cells were incubated with compounds 1, 69-72 for 48 h. At the end of the incubation, MTS reagent (20% vol/vol) was added and the plates were incubated for 1-4 h. The OD490 was read with a plate reader. Wells with media but no cells were treated in similar fashion and the values utilized as blank. The results represent the mean±standard deviation of 6 independent determinations.
as §2, §3

The next data set deals with MiaPaCa2 cells. Description: MTS viability assay, MiaPaCa2 pancreas cancer cells. As for the experimental part: as §4, with “2F.” for “2D.”, “MiaPaCa2” for “DU145”, “FBS and 2.5% horse serum.” for “FBS.”
as §1, with “2I.” for “2K.”, “MiaPaCa2” for “MDA-MB-231”, “FBS and 2.5% horse serum.” for “FBS.”
as §2, §3

The test system of the next data set is PC3 cells. Description: MTS viability assay, PC3 prostate cancer cells. Conditions: 48 h, MTS. On the procedure:
FIG. 2E. Effects of compounds 1-11 on the viability of PC3 cells. PC3 cells were cultured in F12K medium supplemented with 10% FBS. Equal numbers were dispersed into 96-well plates. After 24 h, the cells were incubated with compounds 1-11 (0-30 μM) for 48 h. At the end of the incubation, MTS reagent (20% vol/vol) was added and the plates were incubated for 1-4 h. The OD490 was read with a plate reader. Wells with media but no cells were treated in similar fashion and the values utilized as blank. The results represent the mean±standard deviation of 6 independent determinations.
as §2, §3

A further data set relates to BT-474 cells. Description: MTS viability assay, BT-474 breast cancer cells. As to conditions: 48 h, MTS. As for the experimental part:
FIG. 2C. Effects of compounds 1-11 on the viability of BT-474 cells. BT-474 cells were cultured in DMEM/F12 medium supplemented with 10% FBS. Equal numbers were dispersed into 96-well plates. After 24 h, the cells were incubated with compounds 1-11 (0-30 μM) for 48 h. At the end of the incubation, MTS reagent (20% vol/vol) was added and the plates were incubated for 1-4 h. The OD490 was read with a plate reader. Wells with media but no cells were treated in similar fashion and the values utilized as blank. The results represent the mean±standard deviation of 6 independent determinations.
as §2, §3

Data set [1] has as its system BT-474, JIMT-1, MDA-MB-231 (breast), DU145, PC3 (prostate), MiaPaCa2 (pancreas). The experiment in a line: MTS viability, panel of epithelial cancer cell lines (ranges over the cell lines). As for the experimental part:
To determine the effect of compounds 1-10 on the viability of the epithelial cancer cell lines, exponentially growing cells, BT-474, JIMT-1, MDA-MB-231 (breast), DU145, PC3 (prostate), MiaPaCa2 (pancreas) were incubated with varying concentrations of 1-8 (0-30 μM) for 48 h followed by viability assays with the MTS reagent.
as §3

Setting [2] is: Table 1A, 48 h, read-out: CC50 values MD 231.
Where [3] appears, read: Table 1B, 48 h, read-out: CC90 values MD 231.
The mark [4] stands for this setting: Table 1A, 48 h, read-out: CC50 values DU 145.
[5] abbreviates: Table 1B, 48 h, read-out: CC90 values DU 145.
The mark [6] stands for this setting: Table 1A, 48 h, read-out: CC50 values JIMT1.
The mark [7] stands for this setting: Table 1B, 48 h, read-out: CC90 values JIMT1.
The mark [8] stands for this setting: Table 1A, 48 h, read-out: CC50 values MiaPaCa2.
The mark [9] stands for this setting: Table 1B, 48 h, read-out: CC90 values MiaPaCa2.
Setting [10] is: Table 1A, read-out: CC50 values PC3.
Setting [11] is: Table 1B, read-out: CC90 values PC3.
Setting [12] is: Table 1B, read-out: CC90 values BT474.
[13] abbreviates: Table 6, 48 h, read-out: MB-MDA-231 CC50.
The mark [14] stands for this setting: Table 6, 48 h, read-out: MB-MDA-231 CC90.
[15] abbreviates: Table 6, 48 h, read-out: DU145 CC50.
Setting [16] is: Table 6, 48 h, read-out: DU145 CC90.
The mark [17] stands for this setting: Table 6, 48 h, read-out: JIMT1 CC50.
Where [18] appears, read: Table 6, 48 h, read-out: JIMT1 CC90.
[19] abbreviates: Table 6, 48 h, read-out: MiaPaCa2 CC50.
[20] abbreviates: Table 6, 48 h, read-out: MiaPaCa2 CC90.

Broadly, the CC50 is the concentration that lowers cell viability or growth by half. In the case of `CCCCCCCCCCCCCCCCOC[C@H](CO[C@@H]1O[C@H](CN)[C@@H](O)[C@H](O)[C@H]1N)OC` [Compound 2, 1-O-Hexadecyl-2-O-methyl-3-O-(-2′,6′-diamino-2′,6′-dideoxy-β-D-glucopyranosyl)-sn-glycerol], the CC50 in the data set with MDA-MB-231 cells (setting [2]) was 5.5 µM; in the data set on DU145 cells (setting [4]) it was 6 µM; with JIMT-1 cells (setting [6]), 4.2 µM; in the data set on MiaPaCa2 cells (setting [8]), 7 µM; in the data set with PC3 cells (setting [10]), 11 µM; in data set [1] (range over the cell lines tested, 48 h, read-out: CC50 values, range depending on the cell line) it was 4.2 to 11.5 µM. Moreover, the CC90 with MDA-MB-231 cells (setting [3]) was determined as 7 µM; with DU145 cells (setting [5]), 8.5 µM; in the data set on JIMT-1 cells (setting [7]), 6.5 µM; with MiaPaCa2 cells (setting [9]) it was 12 µM; in the data set on PC3 cells (setting [11]), 14 µM; in the data set with BT-474 cells (setting [12]), 14 µM.

Regarding `CCCCCCCCCCCCCCCCOCC(CO[C@@H]1O[C@H](CO)[C@@H](O)[C@H](O)[C@H]1N)NC(=O)CCCCCCCCCCCCCCC` (stereo partly drawn) [Compound 9, 1-O-Hexadecyloxy-2S/R—N-hexadecylacyl-3-(-2′-amino-2′-deoxy-β-D-glucopyranosyl)-glycerol], the half-maximal cytotoxic concentration (CC50) was > 30 µM in the data set with MDA-MB-231 cells (setting [2]); > 30 µM with DU145 cells (setting [4]); > 30 µM in the data set on JIMT-1 cells (setting [6]); > 30 µM in the data set with MiaPaCa2 cells (setting [8]); > 30 µM in the data set with PC3 cells (setting [10]); > 30 µM in the data set on BT-474 cells (Table 1A, read-out: CC50 values BT474). Besides, the CC90 in the data set on MDA-MB-231 cells (setting [3]), in the data set with DU145 cells (setting [5]), with JIMT-1 cells (setting [7]), in the data set on MiaPaCa2 cells (setting [9]), in the data set on PC3 cells (setting [11]) and in the data set with BT-474 cells (setting [12]) was > 30 µM throughout. In data set [1] (30 μM, all the cell lines tested), the “activity at the highest concentration tested” value is “not active”.

Consider `CCCCCCCCCCCCCCCCOC[C@H](COC1O[C@H](CNCCCN)[C@@H](O)[C@H](O)[C@H]1N)OC` (stereo partly shown) [Compound 74, 1-O-Hexadecyl-2-O-methyl-3-O-[6′-N-(3-aminopropyl)-2′,6′-diamino-2′,6′-dideoxy-glucopyranoside]-sn-glycerol], for which the half-maximal cytotoxic concentration (CC50) was 13.5 µM in the data set on MDA-MB-231 cells (setting [13]); 16.5 µM with DU145 cells (setting [15]); 13.5 µM with JIMT-1 cells (setting [17]); 18.5 µM in the data set on MiaPaCa2 cells (setting [19]); 12.5 µM in the data set on PC3 cells (Table 6, read-out: PC3 CC50); > 20 µM with BT-474 cells (Table 6, read-out: BT474 CC50). The CC90 was 19.5 µM in the data set on MDA-MB-231 cells (setting [14]); 20 µM with DU145 cells (setting [16]); 18.5 µM in the data set on JIMT-1 cells (setting [18]); > 20 µM in the data set with MiaPaCa2 cells (setting [20]); 20 µM in the data set on PC3 cells (Table 6, read-out: PC3 CC90); > 20 µM in the data set on BT-474 cells (Table 6, read-out: BT474 CC90).

Turning to `CCCCCCCCCCCCCCCCOC[C@H](COC1O[C@H](CN)[C@@H](O)[C@H](O)[C@H]1NCCCN)OC` (stereo partly shown) [Compound 76, 1-O-Hexadecyl-2-O-methyl-3-O-[2′-N-(3-aminopropyl)-2′,6′-diamino-2′,6′-dideoxy-glucopyranoside]-sn-glycerol], the CC50 is 17.5 µM in the data set with MDA-MB-231 cells (setting [13]); 18.5 µM with DU145 cells (setting [15]); 12.5 µM in the data set with JIMT-1 cells (setting [17]); 14.5 µM in the data set on MiaPaCa2 cells (setting [19]); 14.5 µM in the data set with PC3 cells (Table 6, read-out: PC3 CC50); > 20 µM in the data set with BT-474 cells (Table 6, read-out: BT474 CC50). In addition, the CC90 in the data set on MDA-MB-231 cells (setting [14]) is > 20 µM; in the data set with DU145 cells (setting [16]), > 20 µM; in the data set on JIMT-1 cells (setting [18]), 16.5 µM; with MiaPaCa2 cells (setting [20]), > 20 µM; in the data set on PC3 cells (Table 6, read-out: PC3 CC90), > 20 µM; with BT-474 cells (Table 6, read-out: BT474 CC90), > 20 µM.
